Results: patent US20110143960A1, “3D-MODELS FOR HIGH-THROUGHPUT SCREENING DRUG DISCOVERY AND DEVELOPMENT” (priority 2009, published 2011)
“Also recorded” adds a separate entry of the source. Read-outs that look alike come from different tables or passages of the source.

Legend:
[1] = tested on: VimPro-Fluc-MDA-MB-231 cells; type: cell-based; details: VimPro-Fluc-MDA-MB-231 monolayer, 72 h
Description: (§1) A 2D-screen was conducted with small molecule antitumor agents, growth factors or antibodies (FIG. 2B). All cells were cultured in 100 mm tissue culture dishes in RPMI-1640 supplemented with 10% FBS and maintained in a 5% CO2 incubator at 37° C. VimPro-Fluc-MDA-MB-231 and VimPro-Fluc-PMC42-LA were seeded at 5,000 cells/well into 96-well white plates and incubated overnight for 16 h. VimPro-Fluc-PMC42-LA and VimPro-Fluc-MDA-MB-231 cells were treated for 72 h. The treatment medium was replaced with 50 μL fresh medium, then 50 μL of One-Glo Luciferase reagent and incubated at room temperature for 10 min. Luminescence was recorded with an integration time of 1 sec/well using a luminescence microplate reader.

[2] = tested on: VimPro-Fluc-PMC42-LA cells; type: cell-based; details: VimPro-Fluc-PMC42-LA monolayer, 10 ng/mL EGF, 72 h
Description: as §1

[3] = tested on: VimPro-Fluc-MDA-MB-231 spheroids; assay: Live 3D-spheroid vimentin expression assay (VimPro-Fluc, DMNPE-caged luciferin); type: cell-based; details: read-out: IC50 vimentin expression, dose response
Description: Uniform single-spheroids of MDA-MB-231 and VimPro-Fluc-MDA-MB-231 breast carcinoma cells were cultured in 96-well flat bottom plates coated with 50 μL of a 1.5% agarose (weight/volume) solution in serum free RPMI-1640 (no phenol red) medium (freshly autoclaved at 121° C. for 15 min). During the coating process the agarose/RPMI-1640 solution was maintained at >60° C. followed by cooling and setting at room temperature for 40 min. Cells were plated at a density of 10,000 cells/well in 50 μL of RPMI-1640 (10% FBS, no phenol red) and centrifuged at 1,000 rpm for 15 min to induce cell aggregation. […]
VimPro-Fluc-MDA-MB-231 spheroids were cultured in 96-well optical bottom white plates and treated as described above. On day 8, after 72 h treatment with control EMT modulators, live spheroid vimentin expression was measured by adding 10 μL (final 12.5 μM) of DMNPE-caged luciferin to each well and incubating at 37° C., 5% CO2 for 2 h.
Uniform single spheroids were cultured in 96-well optical bottom white plates as described above and treated on day 5. […] After 72 h, vimentin expression was measured by adding 10 μL (final 12.5 μM) of DMNPE-caged luciferin to each well and incubated for 2 h (37° C., 5% CO2). Luminescence was recorded with an integration time of 1 second/well (FIG. 9A-D).

MDA-MB-231 spheroids [4] = assay: Modified Boyden chamber cell invasion assay of cells dissociated from spheroids; type: cell-based; details: control modulators, 72 h treatment, 24 h invasion, FIG. 6
Description: Spheroids were treated as in the primary assay. Following treatment, each sample group was disassociated into single cell suspensions and seeded into invasion chambers followed by a 24 h incubation period. VimPro-Fluc-MDA-MB-231 spheroids were treated with control EMT modulators as described using 15 spheroids per sample group. The spheroids for each sample group were pooled into 1.5 ml, micro tubes and collected by centrifugation at 10,000 rpm for 10 min at room temperature.
Each sample group was then treated with 200 μL of spheroid dissociation solution (0.25% trypsin-EDTA) and incubated at 37° C. for 30 min. Single cell suspensions of each group in RPMI-1640 medium containing 0.1% BSA were seeded at 35,000 cells/chamber (50 μL) into the top chambers of a 96-well invasion plate (BD Biosciences; Bedford, Mass.) previously coated with 50 μL of […]™ (40 μg/mL protein in RPMI-1640 medium). Chemoattractant (10%
FBS in RPMI-1640 medium, 150 μL) was added to each bottom chamber and the plate was incubated (37° C., 5% CO2) for 24 h. Following incubation the insert was removed and the medium aspirated from both top and bottom chambers. […] Each side of the membrane insert was washed 2× by adding 200 μL PBS-CMF (Ca/Mg free) to the bottom chamber, replacing the insert and adding 50 μL PBS-CMF to the top chamber. The PBS-CMF was removed and the invading cells were fixed with 200 μL of 4% paraformaldahyde in the bottom chambers at 37° C. for 15 min. The insert was washed 2× with PBS-CMF as described above. The invading cells were subsequently stained with 200 μL of DAPI (3 μg/mL) in PBS-CMF for 30 min at room temperature and washed 4×, as described above, in 15 min intervals. Invading cells were quantified using five random fields per filter insert in triplicate at 20× magnification using a fluorescent microscope equipped with metamorph image analysis and quantification software (Molecular Devices; Downingtown, Pa.).

[5] = tested on: vimentin in MDA-MB-231 spheroids; assay: Immunofluorescent vimentin staining of whole and sectioned spheroids (confocal); type: cell-based; details: whole spheroid, outer surface / peripheral layer; U0126 10 μM 72 h
Description: Confocal 3D imaging emphasizes a surface edge of MDA-MB-231 spheroids untreated or treated with (10 μM) U0126 for 72 hours.
Spheroids were fixed with 50 μL of 3.7% formaldehyde for 10 min at room temperature. They were then washed once with PBS and 50 μL of 0.2% Triton X-100 in PBS (v/v) were added for 10 min at room temperature to permeate cells. Next they were blocked with 50 μL of cell culture medium (10% FBS) for 1 h at room temperature. Blocking medium was then aspirated and sphroids were treated with mouse anti-vimentin at 1:100 in TBST containing 20% cell culture medium (v/v) with shaking at 4° C. overnight. They were then washed (3×TBST) and stained with FITC green fluorescent conjugated goat anti-mouse secondary antibody at 1:1,000 and with DAPI (4′,6-diamidino-2-phenylindole) at 1:1,000 in TBST containing 20% cell culture medium (v/v) for 1 h at room temperature and washed with TBST 4×. After fixing with formaldehyde, some spheroids were sectioned using a Leica CM 1950 cryostat (Leica Microsystems; Germany) with thickness of 10 μm. Spheroid sections were washed with PBS and stained as described above. Spheroid sections on slides were covered with mounting medium and cover slips. Imaging of whole spheroids was done with an UltraVIEW® VoX 3D confocal microscope (Perkin Elmer) using a 20× objective. Spheroid sections were imaged using a Nikon D-Eclipse Cl confocal microscope system (Nikon Instruments Inc; Melville, N.Y.).
Vimentin expression in VimPro-Fluc-MDA-MB-231 spheroids was further assessed by immunofluorescent staining of whole spheroids treated with U0126.

[6] = tested on: EGF-treated PMC42-LA cells
Description: (§2) Cell lines were cultured as monolayers in 96-well microplates and treated with U0126, the specific inhibitor of mitogen-activated protein kinase kinase (MEK1).

MDA-MB-231 cells = tested on: MDA-MB-231 cells
Description: as §2

MDA-MB-231 spheroids [7] = assay: Spheroid viability, APH assay multiplexed after vimentin readout; type: cell-based; details: for spheroid death (control of APH assay): 10% Triton X-100, 2 h prior to APH analysis
Description: Cell Viability To support the primary assay hit validation, two cell viability assays have been developed: the acid phosphatase assay (APH) and the cell-titer-glow (Promega®). Both assays give robust reproducible results in both 2D and 3D cell culture. We can also multiplex these assays using live VimPro-Fluc stable 3D-spheroids (FIG. 5). On day 8, vimentin expression was measured (luminescence as RLU/s), using a live cell permeable luciferin reagent, followed by multiplexing with the APH assay (OD405). […] Thus, downregulation of VimPro-Fluc activity by the control modulators is not due to spheroid death.
Uniform single spheroids were cultured in 96-well optical bottom white plates as described above and treated on day 5. To avoid edge effects the outer wells were unused and filled with sterilized water. 15 μL of controls and marine natural products were added to each well at final concentrations described above. After 72 h, vimentin expression was measured by adding 10 μL (final 12.5 μM) of DMNPE-caged luciferin to each well and incubated for 2 h (37° C., 5% CO2). Luminescence was recorded with an integration time of 1 second/well (FIG. 9A-D). Directly following the primary assay measuring vimentin expression, spheroid viability was multiplexed using the APH assay. Hits were confirmed using the cell invasion assay (FIG. 9E).

Compound: COc1cc2ncnc(Nc3cccc(Cl)c3)c2cc1OC [AG1478]
- vimentin expression [1]: no statistically significant effect
- EGF-induced EMT (vimentin upregulation) [2]: significantly inhibited

Compound: CNC(=O)c1ccccc1Sc1ccc2c(/C=C/c3ccccn3)n[nH]c2c1 [Axitinib]
- IC50 ([3]; VimPro-Fluc spheroids, FIG. 8B): 250 nM

Compound: C[C@@H](Oc1cc(-c2cnn(C3CCNCC3)c2)cnc1N)c1c(Cl)ccc(F)c1Cl [PF2341066, PF-2341066]
- inhibition of invasive potential vs untreated spheroids (MDA-MB-231 spheroids [4]): about 90%
- invasive potential of MDA-MB-231 spheroids (in words) (MDA-MB-231 spheroids [4]): significant inhibition

Compound: CO[C@@H]1[C@H](N(C)C(=O)c2ccccc2)C[C@H]2O[C@]1(C)n1c3ccccc3c3c4c(c5c6ccccc6n2c5c31)C(=O)NC4 [PKC412]
- invasive potential of MDA-MB-231 spheroids (in words) (MDA-MB-231 spheroids [4]): significant inhibition

Compound: N#CC(=C(/N)Sc1ccccc1N)/C(C#N)=C(\N)Sc1ccccc1N [U0126]
- vimentin expression [1]: significant downregulation of vimentin expression
- EGF-induced EMT (vimentin upregulation) [2]: significantly inhibited
- IC50 [3]: 2500 nM
- vimentin protein expression by immunofluorescence [5]: overall vimentin downregulation; also recorded: Significant downregulation of vimentin protein expression; also recorded: repression of Vimentin expression
- inhibition of invasive potential vs untreated spheroids (MDA-MB-231 spheroids [4]): about 90%
- invasive potential of MDA-MB-231 spheroids (in words) (MDA-MB-231 spheroids [4]): significant inhibition
- invasive potential [6]: significantly diminished
- invasive potential (MDA-MB-231 cells): significantly diminished

Compound: COc1c(OC)c2c(c(CCN(C)C)c1SC)Sc1c(CCN(C)C)c(SC)c(OC)c(OC)c1S2 [lissoclinotoxin E]
- spheroid viability vs untreated spheroids on day 5 (MDA-MB-231 spheroids [7]; marine natural product hits, 10 μM, 72 h, APH assay): exception; also recorded: statistically significant decrease in spheroid viability

Compound: Triton X-100
- spheroid death (control of APH assay) (MDA-MB-231 spheroids [7]): significantly induces spheroid death
- spheroid death (control of APH assay) (MDA-MB-231 spheroids [7]; listed as Triton-X-100): significantly induced spheroid death
